For the experiment, the system named is BDF1 mice, P388 leukemia ip, median survival T/C. The experiment can be described thus: NCI In Vivo Anticancer Drug Screen. Data for tumor model P388 Leukemia (intraperitoneal) in B6D2F1 (BDF1) mice. Particulars: endpoint: median survival time, higher = longer survival. The gist of the method:
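Steps: implant the tumour, treat one group with compound and another with vehicle, record survival, then divide treated by control.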

Where [1] appears, read: dose: 50.0 mg/kg/injection, schedule: Q01DX009 (ip), vehicle: saline with Tween-80.
Setting [2] is: dose: 50.0 mg/kg/injection, schedule: Q04DX003 (ip), vehicle: saline with Tween-80.
[3] abbreviates: dose: 100.0 mg/kg/injection, schedule: Q01DX009 (ip), vehicle: saline with Tween-80.
Setting [4] is: dose: 200.0 mg/kg/injection, schedule: Q01DX009 (ip), vehicle: saline with Tween-80.
[5] abbreviates: dose: 6.25 mg/kg/injection, schedule: Q01DX009 (ip), vehicle: saline.
[6] abbreviates: dose: 25.0 mg/kg/injection, schedule: Q01DX009 (ip), vehicle: saline.
Setting [7] is: dose: 50.0 mg/kg/injection, schedule: Q01DX005 (ip), vehicle: Klucel (hydroxypropylcellulose) (HPC).
The mark [8] stands for this setting: dose: 50.0 mg/kg/injection, schedule: Q01DX009 (ip), vehicle: saline.
Where [9] appears, read: dose: 200.0 mg/kg/injection, schedule: Q01DX009 (ip), vehicle: saline.
Where [10] appears, read: dose: 200.0 mg/kg/injection, schedule: Q04DX003 (ip), vehicle: saline.
The mark [11] stands for this setting: dose: 400.0 mg/kg/injection, schedule: Q01DX009 (ip), vehicle: saline.
[12] abbreviates: dose: 400.0 mg/kg/injection, schedule: Q04DX003 (ip), vehicle: saline.
Setting [13] is: dose: 100.0 mg/kg/injection, schedule: Q01DX009 (ip), vehicle: saline.

Several values for one entry are separate records, joined by “and”; a condition that tells them apart may be missing. Equal values may be shown once. Inconclusive results and toxic doses are left out.

In the case of `C[C@]12CCCC[C@@H]1CC[C@@H]1[C@@H]2[C@@H](O)C[C@]2(C)[C@@H](O)CC[C@@H]12`, the T/C was 95 % of control and 100 % of control under setting [1]; 100 % of control under setting [2]; 95 % of control (dose: 66.0 mg/kg/injection, schedule: Q04DX003 (ip), vehicle: saline with Tween-80); 95 % of control and 100 % of control under setting [3]; 122 % of control (dose: 100.0 mg/kg/injection, schedule: Q04DX003 (ip), vehicle: saline with Tween-80); 90 % of control (dose: 150.0 mg/kg/injection, schedule: Q04DX003 (ip), vehicle: saline with Tween-80). Also, the T/C by setting is: under setting [4], 90 % of control and 100 % of control; (dose: 200.0 mg/kg/injection, schedule: Q04DX003 (ip), vehicle: saline with Tween-80) 100 % of control.

For `Cn1cnc([N+](=O)[O-])c1Sc1nc(N)nc2c1ncn2C1CC(O)C(CO)O1` (centres undefined), the T/C runs as follows: (dose: 6.25 mg/kg/injection, schedule: Q01DX005 (ip), vehicle: Klucel (hydroxypropylcellulose) (HPC)) 155 % of control; under setting [5], 161 % of control; under setting [6], 114 % of control and 95 % of control; under setting [7], 86 % of control; under setting [8], 107 % of control; (dose: 150.0 mg/kg/injection, schedule: Q01DX009 (ip), vehicle: saline) 107 % of control. In addition, the T/C is 109 % of control and 110 % of control under setting [9]; 118 % of control under setting [10]; 91 % of control and 116 % of control under setting [11]; 113 % of control under setting [12].

With `CN(C)c1ccc(-c2c3ccccc3nc3ccccc23)cc1`, the T/C reads like this: under setting [1], 107 % of control; under setting [3], 115 % of control; under setting [4], 106 % of control.

Take `O=C(O)c1ccc(NC(=O)C(F)(F)F)cc1`: the T/C (dose: 25.0 mg/kg/injection, schedule: Q04DX003 (ip), vehicle: saline sonified) was 86 % of control and the T/C (dose: 100.0 mg/kg/injection, schedule: Q04DX003 (ip), vehicle: saline sonified) was 95 % of control.

As for `COc1cc(OC)cc(OC)c1`, the T/C is 108 % of control (dose: 40.0 mg/kg/injection, schedule: Q01DX009 (ip), vehicle: Klucel (hydroxypropylcellulose) (HPC)); 100 % of control (dose: 80.0 mg/kg/injection, schedule: Q01DX009 (ip), vehicle: Klucel (hydroxypropylcellulose) (HPC)); 106 % of control (dose: 160.0 mg/kg/injection, schedule: Q01DX009 (ip), vehicle: Klucel (hydroxypropylcellulose) (HPC)).

As to `OCCN1CCOCC1`, the T/C runs as follows: under setting [13], 109 % of control; under setting [9], 109 % of control; under setting [11], 109 % of control.

In the case of `NC(=O)C(c1ccccc1)N1CCCCC1` (centres undefined), the T/C is 109 % of control (dose: 6.25 mg/kg/injection, schedule: Q01DX009 (ip), vehicle: Klucel (hydroxypropylcellulose) (HPC)); 95 % of control (dose: 12.5 mg/kg/injection, schedule: Q01DX009 (ip), vehicle: Klucel (hydroxypropylcellulose) (HPC)); 95 % of control (dose: 25.0 mg/kg/injection, schedule: Q01DX009 (ip), vehicle: Klucel (hydroxypropylcellulose) (HPC)); 104 % of control (dose: 25.0 mg/kg/injection, schedule: Q04DX003 (ip), vehicle: Klucel (hydroxypropylcellulose) (HPC)); 91 % of control (dose: 50.0 mg/kg/injection, schedule: Q01DX009 (ip), vehicle: Klucel (hydroxypropylcellulose) (HPC)); 104 % of control (dose: 50.0 mg/kg/injection, schedule: Q04DX003 (ip), vehicle: Klucel (hydroxypropylcellulose) (HPC)). Also, the T/C (dose: 100.0 mg/kg/injection, schedule: Q04DX003 (ip), vehicle: Klucel (hydroxypropylcellulose) (HPC)) was 108 % of control.

For `O=C(Nc1ccc(NC(=O)Nc2cccc(C3=NCCCN3)c2)cc1)Nc1ccc(C2=NCCCN2)cc1`, the T/C (dose: 6.6 mg/kg/injection, schedule: Q01DX009 (ip), vehicle: saline with Tween-80) was 154 % of control and the T/C (dose: 10.0 mg/kg/injection, schedule: Q01DX009 (ip), vehicle: saline with Tween-80) was 181 % of control.

`CC12CC3(O)CCC1CCC2C(=O)C3` (centres undefined): the T/C was 118 % of control (dose: 100.0 mg/kg/injection, schedule: Q04DX003 (ip), vehicle: saline); 109 % of control under setting [10]; 122 % of control under setting [12].

With `COc1cc(C=Nc2cc(Cl)c(O)c(Cl)c2)ccc1N(CCCl)CCCl`, the T/C is, setting by setting: (dose: 5.0 mg/kg/injection, schedule: Q04DX003 (ip), vehicle: saline with Tween-80) 181 % of control; (dose: 8.0 mg/kg/injection, schedule: Q04DX003 (ip), vehicle: saline with Tween-80) 222 % of control; (dose: 12.0 mg/kg/injection, schedule: Q04DX003 (ip), vehicle: saline with Tween-80) 231 % of control and 211 % of control; (dose: 12.5 mg/kg/injection, schedule: Q04DX003 (ip), vehicle: saline with Tween-80) 111 % of control; (dose: 17.0 mg/kg/injection, schedule: Q04DX003 (ip), vehicle: saline with Tween-80) 196 % of control; (dose: 25.0 mg/kg/injection, schedule: Q04DX003 (ip), vehicle: saline with Tween-80) 215 % of control. Moreover, the T/C runs as follows: (dose: 37.5 mg/kg/injection, schedule: Q04DX003 (ip), vehicle: saline with Tween-80) 230 % of control; under setting [2], 100 % of control.

For `COC(=O)C1C(=O)COC1C` (centres undefined), the T/C was 109 % of control (dose: 12.5 mg/kg/injection, schedule: Q01DX005 (ip), vehicle: saline with Tween-80); 112 % of control (dose: 25.0 mg/kg/injection, schedule: Q01DX005 (ip), vehicle: saline with Tween-80); 110 % of control (dose: 50.0 mg/kg/injection, schedule: Q01DX005 (ip), vehicle: saline with Tween-80).

On to `CCOC(=O)c1cc(-c2ccccc2)[nH]c1-c1ccccc1`, for which the T/C was 96 % of control under setting [8], 100 % of control under setting [13] and 98 % of control under setting [9].

Take `CCOC(=O)C(Br)C(=O)OCC`: the T/C under setting [5] was 100 % of control; the T/C (dose: 12.5 mg/kg/injection, schedule: Q01DX009 (ip), vehicle: saline) is 100 % of control; the T/C (dose: 12.5 mg/kg/injection, schedule: Q04DX003 (ip), vehicle: saline) was 110 % of control; the T/C under setting [6] is 95 % of control; the T/C (dose: 25.0 mg/kg/injection, schedule: Q04DX003 (ip), vehicle: saline) was 110 % of control; the T/C under setting [8] was 86 % of control. Moreover, where the note is “dose: 50.0 mg/kg/injection, schedule: Q04DX003 (ip), vehicle: saline”, the T/C was 105 % of control.

Turning to `CCN(CC)CCCCCNc1cc(Cl)c(Cl)cc1[N+](=O)[O-]`, the T/C under setting [8] was 111 % of control and the T/C under setting [13] was 100 % of control.

As for `O=C1C=CC(=O)N1c1ccc(Cl)cc1`, the T/C (dose: 1.25 mg/kg/injection, schedule: Q04DX003 (ip), vehicle: Klucel (hydroxypropylcellulose) (HPC)) was 114 % of control; the T/C (dose: 2.5 mg/kg/injection, schedule: Q01DX009 (ip), vehicle: Klucel (hydroxypropylcellulose) (HPC)) was 159 % of control; the T/C (dose: 2.5 mg/kg/injection, schedule: Q04DX003 (ip), vehicle: Klucel (hydroxypropylcellulose) (HPC)) is 122 % of control; the T/C (dose: 5.0 mg/kg/injection, schedule: Q04DX003 (ip), vehicle: Klucel (hydroxypropylcellulose) (HPC)) was 108 % of control; the T/C (dose: 10.0 mg/kg/injection, schedule: Q04DX003 (ip), vehicle: Klucel (hydroxypropylcellulose) (HPC)) is 107 % of control; the T/C (dose: 20.0 mg/kg/injection, schedule: Q01DX009 (ip), vehicle: Klucel (hydroxypropylcellulose) (HPC)) was 115 % of control.

Regarding `CC1(C)N=C(N)N=C(N)N1c1ccc(C(N)=O)cc1`, the T/C was 109 % of control under setting [7] and 112 % of control (dose: 100.0 mg/kg/injection, schedule: Q01DX005 (ip), vehicle: Klucel (hydroxypropylcellulose) (HPC)).

With `CC[C@@]1(O)C[C@H](OC2CC(N(C)C)C(OC3CC4OC5CC(=O)C(C)OC5OC4C(C)O3)C(C)O2)c2c(cc3c(c2O)C(=O)c2c(O)cccc2C3=O)[C@H]1C(=O)OC` (some centres undefined), the T/C runs as follows: (dose: 0.25 mg/kg/injection, schedule: Q01DX009 (ip), vehicle: water) 109 % of control; (dose: 4.0 mg/kg/injection, schedule: Q01DX009 (ip), vehicle: water) 86 % of control.

The values are drawn from PubChem BioAssay AID328 (DTP/NCI, 2004).
